The source of these data is ChEMBL document CHEMBL5325426, “Structure-based discovery of potent USP28 inhibitors derived from Vismodegib” (Eur J Med Chem, 2023).

Calls of active or inactive are those of the source. The rule behind the calls is not given here.

Assay [1] concerns the target Ubiquitin carboxyl-terminal hydrolase 9X (Homo sapiens) (UniProt Q93008). Description: Inhibition of USP9X (1151 to 1970 residues) (unknown origin) expressed in Escherichia coli BL21 (DE3) using Ub-AMC as substrate at 5 uM by fluorescence based analysis.
Assay [2] relates to LS174T. Description: Antiproliferative activity against human LS174T cells assessed as cell growth inhibition at 10 to 30 uM incubated for 3 days in presence of Regorafenib by SRB assay. The assay is classed as functional, cell-based. The following applies: dose 10-30 µM, time 3.0 day.
Assay [3] deals with T1, Ubiquitin carboxyl-terminal hydrolase isozyme L3 (Homo sapiens) (UniProt P15374).
T1 sequence (whole entry): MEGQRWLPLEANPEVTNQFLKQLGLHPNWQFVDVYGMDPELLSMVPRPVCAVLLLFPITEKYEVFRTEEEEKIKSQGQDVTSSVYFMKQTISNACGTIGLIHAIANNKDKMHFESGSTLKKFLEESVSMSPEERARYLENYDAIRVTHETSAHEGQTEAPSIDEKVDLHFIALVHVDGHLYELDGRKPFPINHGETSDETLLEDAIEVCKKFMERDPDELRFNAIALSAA
The assay can be described thus: Inhibition of UCHL3 (unknown origin) expressed in Escherichia coli BL21 (DE3) using Ub-AMC as substrate at 5 uM by fluorescence based analysis.

For assay [4], the system named is LS174T. The assay can be described thus: Antiproliferative activity against human LS174T cells assessed as cell growth inhibition incubated for 3 days by SRB assay. The assay is classed as functional, cell-based. As to conditions: 72 h.
Assay [5] concerns the target T2, Ubiquitin carboxyl-terminal hydrolase 25 (Homo sapiens) (UniProt Q9UHP3).
T2 sequence (whole entry): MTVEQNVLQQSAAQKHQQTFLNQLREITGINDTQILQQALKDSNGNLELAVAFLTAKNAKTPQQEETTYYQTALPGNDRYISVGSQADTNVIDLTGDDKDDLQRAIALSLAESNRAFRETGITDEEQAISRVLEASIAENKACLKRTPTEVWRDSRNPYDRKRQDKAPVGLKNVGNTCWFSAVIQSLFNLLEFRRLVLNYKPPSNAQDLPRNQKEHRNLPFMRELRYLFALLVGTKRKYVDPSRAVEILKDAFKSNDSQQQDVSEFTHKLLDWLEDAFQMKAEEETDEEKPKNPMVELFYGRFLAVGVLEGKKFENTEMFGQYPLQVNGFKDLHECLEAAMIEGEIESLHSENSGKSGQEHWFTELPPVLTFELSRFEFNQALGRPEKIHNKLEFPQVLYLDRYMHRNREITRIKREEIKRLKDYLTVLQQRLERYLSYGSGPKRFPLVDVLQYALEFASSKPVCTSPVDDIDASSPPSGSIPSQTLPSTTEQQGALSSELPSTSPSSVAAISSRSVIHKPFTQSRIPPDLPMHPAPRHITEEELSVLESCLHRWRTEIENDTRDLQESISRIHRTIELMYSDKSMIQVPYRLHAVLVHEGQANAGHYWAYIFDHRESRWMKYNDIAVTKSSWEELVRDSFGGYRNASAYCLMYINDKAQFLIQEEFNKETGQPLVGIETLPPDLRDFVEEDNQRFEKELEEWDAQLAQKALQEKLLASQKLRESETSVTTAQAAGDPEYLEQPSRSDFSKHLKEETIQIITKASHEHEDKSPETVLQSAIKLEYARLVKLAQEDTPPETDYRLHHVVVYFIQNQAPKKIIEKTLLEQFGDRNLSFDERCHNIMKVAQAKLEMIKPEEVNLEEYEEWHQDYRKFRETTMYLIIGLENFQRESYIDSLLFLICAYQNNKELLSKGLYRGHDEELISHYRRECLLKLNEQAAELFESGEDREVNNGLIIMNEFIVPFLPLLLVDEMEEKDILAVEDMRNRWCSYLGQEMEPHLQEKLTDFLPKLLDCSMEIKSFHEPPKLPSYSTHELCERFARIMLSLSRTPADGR
The assay can be described thus: Inhibition of USP25 in human HCT-116 cells assessed as downregulation of Tankyrase 1/2 protein level. The class given is cell-based.

Assay [6] concerns the target T2, Ubiquitin carboxyl-terminal hydrolase 25 (Homo sapiens). Description: Inhibition of USP25 (unknown origin) expressed in Escherichia coli BL21 (DE3) using Ub-AMC as substrate at 5 uM by fluorescence based analysis.
Assay [7] deals with T3, Ubiquitin carboxyl-terminal hydrolase isozyme L5 (Homo sapiens) (UniProt Q9Y5K5).
T3 sequence (whole entry): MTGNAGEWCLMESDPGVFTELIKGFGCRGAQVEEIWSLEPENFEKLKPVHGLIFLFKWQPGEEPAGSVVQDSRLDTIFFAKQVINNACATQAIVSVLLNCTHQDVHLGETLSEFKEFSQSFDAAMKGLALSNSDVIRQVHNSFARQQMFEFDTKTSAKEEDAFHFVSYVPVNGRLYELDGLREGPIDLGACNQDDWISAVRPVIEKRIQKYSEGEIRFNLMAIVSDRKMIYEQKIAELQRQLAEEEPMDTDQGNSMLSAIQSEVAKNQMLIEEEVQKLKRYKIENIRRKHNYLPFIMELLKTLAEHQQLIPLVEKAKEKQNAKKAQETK
The assay can be described thus: Inhibition of UCHL5 (1 to 228 residues) (unknown origin) expressed in Escherichia coli BL21 (DE3) using Ub-AMC as substrate at 5 uM by fluorescence based analysis.

Assay [8] relates to HCT-116. Description: Antiproliferative activity against human HCT-116 cells assessed as cell growth inhibition incubated for 3 days by SRB assay. The class given is functional, cell-based. The following applies: HCT-116, 72 h.
Assay [9] addresses T4, Ubiquitin carboxyl-terminal hydrolase 2 (Homo sapiens) (UniProt O75604).
T4 sequence (whole entry): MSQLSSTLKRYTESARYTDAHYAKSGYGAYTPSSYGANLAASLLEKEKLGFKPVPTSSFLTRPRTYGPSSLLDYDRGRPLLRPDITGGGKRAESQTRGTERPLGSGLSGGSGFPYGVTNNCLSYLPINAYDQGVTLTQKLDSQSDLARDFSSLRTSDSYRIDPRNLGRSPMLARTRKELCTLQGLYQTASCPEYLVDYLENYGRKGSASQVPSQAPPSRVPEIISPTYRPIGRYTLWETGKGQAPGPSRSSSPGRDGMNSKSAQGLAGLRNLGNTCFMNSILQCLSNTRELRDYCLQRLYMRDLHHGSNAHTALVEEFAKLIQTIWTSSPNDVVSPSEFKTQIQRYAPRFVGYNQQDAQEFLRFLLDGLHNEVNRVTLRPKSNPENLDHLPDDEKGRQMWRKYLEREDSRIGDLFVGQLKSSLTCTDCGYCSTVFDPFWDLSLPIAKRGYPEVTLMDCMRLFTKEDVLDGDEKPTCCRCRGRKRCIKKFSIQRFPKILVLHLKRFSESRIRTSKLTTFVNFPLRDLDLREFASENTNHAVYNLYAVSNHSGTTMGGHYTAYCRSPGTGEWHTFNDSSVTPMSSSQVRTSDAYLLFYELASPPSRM
The assay can be described thus: Inhibition of USP2 (258 to 605 residues) (unknown origin) expressed in Escherichia coli BL21 (DE3) using Ub-AMC as substrate at 5 uM by fluorescence based analysis.

Sequence of Ubiquitin carboxyl-terminal hydrolase 9X (Homo sapiens) (Q93008 whole entry, the tested form may be a part): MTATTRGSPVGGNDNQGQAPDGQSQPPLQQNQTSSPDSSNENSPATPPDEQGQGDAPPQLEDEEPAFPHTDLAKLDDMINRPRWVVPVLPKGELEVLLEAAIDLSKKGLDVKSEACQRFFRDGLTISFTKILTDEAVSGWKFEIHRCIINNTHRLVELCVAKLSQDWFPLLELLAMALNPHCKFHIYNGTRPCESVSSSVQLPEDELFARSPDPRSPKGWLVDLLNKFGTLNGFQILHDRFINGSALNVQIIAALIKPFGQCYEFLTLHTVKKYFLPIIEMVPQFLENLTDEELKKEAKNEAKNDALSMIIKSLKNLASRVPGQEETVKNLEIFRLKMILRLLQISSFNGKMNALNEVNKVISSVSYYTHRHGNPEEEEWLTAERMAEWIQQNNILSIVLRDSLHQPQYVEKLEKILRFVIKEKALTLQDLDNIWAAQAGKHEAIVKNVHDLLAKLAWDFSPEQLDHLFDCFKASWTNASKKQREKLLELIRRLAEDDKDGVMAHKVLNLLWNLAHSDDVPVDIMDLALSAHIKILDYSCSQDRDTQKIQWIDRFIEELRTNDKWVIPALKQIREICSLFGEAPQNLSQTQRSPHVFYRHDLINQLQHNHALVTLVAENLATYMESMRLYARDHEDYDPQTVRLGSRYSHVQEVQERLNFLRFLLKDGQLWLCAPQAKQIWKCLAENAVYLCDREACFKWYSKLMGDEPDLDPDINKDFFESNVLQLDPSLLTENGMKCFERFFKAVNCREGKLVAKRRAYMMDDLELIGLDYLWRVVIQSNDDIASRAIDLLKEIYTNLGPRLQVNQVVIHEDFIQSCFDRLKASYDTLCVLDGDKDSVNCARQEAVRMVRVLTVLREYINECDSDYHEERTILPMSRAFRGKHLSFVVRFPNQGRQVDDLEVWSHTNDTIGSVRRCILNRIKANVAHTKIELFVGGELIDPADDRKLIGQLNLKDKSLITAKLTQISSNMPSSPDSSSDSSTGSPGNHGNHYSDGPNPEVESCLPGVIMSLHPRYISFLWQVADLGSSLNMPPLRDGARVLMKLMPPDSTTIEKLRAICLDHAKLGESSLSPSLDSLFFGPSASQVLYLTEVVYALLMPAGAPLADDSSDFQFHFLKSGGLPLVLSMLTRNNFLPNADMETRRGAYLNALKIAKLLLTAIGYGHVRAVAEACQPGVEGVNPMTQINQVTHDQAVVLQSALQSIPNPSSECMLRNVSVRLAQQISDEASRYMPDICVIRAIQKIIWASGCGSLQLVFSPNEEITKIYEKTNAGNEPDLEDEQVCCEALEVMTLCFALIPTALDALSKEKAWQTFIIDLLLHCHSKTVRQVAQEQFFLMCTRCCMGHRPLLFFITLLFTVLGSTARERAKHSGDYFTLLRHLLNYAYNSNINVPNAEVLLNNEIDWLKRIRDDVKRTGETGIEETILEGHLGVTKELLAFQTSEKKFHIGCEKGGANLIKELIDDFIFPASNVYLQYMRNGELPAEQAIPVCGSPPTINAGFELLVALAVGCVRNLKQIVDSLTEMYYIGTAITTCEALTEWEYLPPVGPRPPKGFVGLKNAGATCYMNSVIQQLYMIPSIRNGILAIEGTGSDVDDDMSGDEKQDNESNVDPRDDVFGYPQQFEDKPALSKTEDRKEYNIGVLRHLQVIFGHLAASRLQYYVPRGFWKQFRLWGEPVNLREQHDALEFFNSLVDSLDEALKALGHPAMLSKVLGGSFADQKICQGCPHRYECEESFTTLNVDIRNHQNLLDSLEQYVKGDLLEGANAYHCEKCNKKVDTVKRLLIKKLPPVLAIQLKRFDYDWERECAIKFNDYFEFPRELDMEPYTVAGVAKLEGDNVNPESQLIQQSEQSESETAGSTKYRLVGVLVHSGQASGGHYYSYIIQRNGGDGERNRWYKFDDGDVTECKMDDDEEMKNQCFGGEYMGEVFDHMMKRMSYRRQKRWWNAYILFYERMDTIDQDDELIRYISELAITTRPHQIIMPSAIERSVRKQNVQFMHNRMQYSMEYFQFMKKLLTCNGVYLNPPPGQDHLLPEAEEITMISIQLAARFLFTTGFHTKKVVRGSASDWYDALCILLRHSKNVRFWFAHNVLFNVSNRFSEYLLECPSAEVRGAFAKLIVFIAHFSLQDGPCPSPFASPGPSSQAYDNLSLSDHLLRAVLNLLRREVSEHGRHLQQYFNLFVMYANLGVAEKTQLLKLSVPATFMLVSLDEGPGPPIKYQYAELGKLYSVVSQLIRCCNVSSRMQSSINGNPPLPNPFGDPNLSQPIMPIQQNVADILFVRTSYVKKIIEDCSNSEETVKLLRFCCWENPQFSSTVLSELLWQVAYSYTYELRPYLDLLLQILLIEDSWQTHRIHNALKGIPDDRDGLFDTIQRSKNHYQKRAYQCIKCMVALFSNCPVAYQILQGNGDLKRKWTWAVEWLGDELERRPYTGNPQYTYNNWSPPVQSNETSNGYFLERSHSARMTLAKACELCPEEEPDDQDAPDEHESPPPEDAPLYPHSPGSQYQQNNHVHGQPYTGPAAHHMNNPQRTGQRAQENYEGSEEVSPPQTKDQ

In the case of `CS(=O)(=O)c1ccc(C(=O)Nc2ccc(Cl)c(-c3ccc4c(c3)CCNC4)c2)c(Cl)c1`, the inhibition entry in assay [1], in assay [3], in assay [5], in assay [6], in assay [7] and in [9] was “Active” each time. Also, the outcome in assay [2] was Active. Moreover, the values for the IC50 in assay [4] and in [8] were 19.9 µM and 24.2 µM, respectively.
`CS(=O)(=O)c1ccc(C(=O)Nc2ccc(Cl)c(-c3ccc(C4(N)CC4)cc3)c2)c(Cl)c1`: the inhibition entry in assay [1], in assay [3], in [5], in [6], in assay [7] and in assay [9] was “Active” throughout. Moreover, the outcome in assay [2] was Active. Also, the IC50 in assay [4] stood at 21.9 µM; in assay [8], 26 µM.
On to `CS(=O)(=O)c1ccc(C(=O)Nc2ccc(Cl)c(-c3ccc4c(c3)CNC4)c2)c(Cl)c1`, for which the inhibition entry in assay [1], in [3], in assay [5], in [6], in assay [7] and in assay [9] was “Active” throughout. Moreover, the result in assay [2] was Active. For the same molecule, the IC50 worked out at 24.3 µM in [4] and 38.1 µM in assay [8].
